pEC50, pIC50: −log10 of the molar value. Numbered stars: 1 amine (or outer) side, 2 acyl side, 3 side chain; on linkers, the order of the positions; unused ones are H or OH. Square brackets hold non-standard residues; d marks the D form. Side chains are listed from the residue outwards. Peptide text beside a SMILES is read from it. * marks the point of attachment. C18 diacid = O=C(O)CCCCCCCCCCCCCCCCC(=O)*; γGlu = O=C(O)[C@H](CCC(=O)[*:2])N[*:1]; AEEA = NCCOCCOCC(=O)O; Aib = CC(C)(N)C(=O)O Some results are limits rather than exact numbers.

Two molecules from patent US20240360194A1, “New Peptides as Potent and Selective GIP Receptor Agonists” (Sanofi, priority 2021, published 2024) can be followed below.

The target in data set [1] is T1, human GIP receptor (hGIPR) (Homo sapiens, UniProt P48546).
T1 sequence (P48546 22-466): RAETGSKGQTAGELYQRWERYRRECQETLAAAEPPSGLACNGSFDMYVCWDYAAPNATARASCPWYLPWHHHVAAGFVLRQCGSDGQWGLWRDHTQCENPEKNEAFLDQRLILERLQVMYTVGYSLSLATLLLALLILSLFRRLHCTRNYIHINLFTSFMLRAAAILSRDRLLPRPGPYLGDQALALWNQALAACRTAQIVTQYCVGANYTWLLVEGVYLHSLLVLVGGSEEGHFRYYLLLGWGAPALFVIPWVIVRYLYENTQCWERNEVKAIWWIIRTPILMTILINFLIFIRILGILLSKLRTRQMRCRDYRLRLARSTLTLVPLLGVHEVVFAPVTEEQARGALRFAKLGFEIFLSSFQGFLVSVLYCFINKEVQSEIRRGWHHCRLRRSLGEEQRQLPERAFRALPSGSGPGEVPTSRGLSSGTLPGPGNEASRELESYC
Put plainly: Binding assay, displacement of [125I]GIP from HEK-293 membranes over-expressing GIPR (SPA). The settings on record: [125I]GIP displacement. The procedure, abridged: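 Membranes from HEK-293 cells over-expressing human GIPR or GLP-1R, isolated by homogenising, sonicating and ultracentrifuging at 100000×g into HEPES/EDTA/NaCl buffer with protease inhibitors, were used for binding.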
Background: Loss of bound radioactivity is the signal in a displacement assay; it reports binding, not function.

A short description of data set [2]: ThT assay for the assessment of physical stability (fibrillation). The conditions noted are these: ThT buffer system A: 100 mM phosphate buffer pH 7.4; 3 mg/ml, 37° C., shaking. Format: physicochemical. From the text:
Low physical stability of a peptide solution may lead to amyloid fibril formation, which is observed as well-ordered, thread-like macromolecular structures in the sample, which eventually may lead to gel formation. Thioflavin T (ThT) is widely used to visualize and quantify the presence of misfolded protein aggregates [Biancalana et al., Biochim. Biophys. Acta 2010, 1804(7), 1405]. […] Enzymol. 1999, 309, 274]. The time course for fibril formation often follows the characteristic shape of a sigmoidal curve and can be separated into three regions: a lag phase, a fast growth phase, and a plateau phase. The typical fibril formation process starts with the lag phase in which the amount of partially folded peptide turned into fibrils is not significant enough to be detected. The lag-time corresponds to the time the critical mass of the nucleus is built. Afterwards, a drastic elongation phase follows, and fibril concentration increases rapidly. Investigations were carried out to determine fibrillation tendencies under stress conditions by shaking at 37° C. within Fluoroskan Ascent FL or Fluoroskan Ascent. For the tests in Fluoroskan Ascent (FL), 200 μl sample were placed into a 96-well mictrotiter plate PS, flat bottom, Greiner Fluotrac No. 655076. Plates were sealed with Scotch Tape (Qiagen). Samples were stressed by continuous cycles of 10 sec shaking at 960 rpm and 50 sec rest period at 37° C. The kinetic was monitored by measuring fluorescence intensity every 20 min. Peptides were diluted in a buffer system to a final concentration of 3 mg/ml. 20 μl of a 10.1 mM ThT solution in H2O were added to 2 ml of peptide solution to receive a final concentration of 100 μM ThT. For each sample eight replicates were tested. • ThT buffer system A) 100 mM phosphate buffer pH 7.4 • ThT buffer system B) 100 mM phosphate buffer pH 7.4, 2.7 mg/ml m-cresol Lag time in hours (h) in Thioflavin T (ThT) assay of peptide samples was determined in ThT buffer system A as described in Methods.

A further data set addresses T2, human GIP receptor (Homo sapiens, UniProt P48546).
T2 construct: human adipocytes endogenously expressing the human GIP receptor; host or cells: human preadipocytes (Lonza) differentiated to adipocytes
T2 sequence (P48546 22-466): T1 sequence (P48546 22-466)
Put plainly: In vitro cellular cAMP assay for GIP receptor efficacy (human adipocytes). Format: cell-based. The conditions noted are these: for Emax: read-out: hGIPR Emax. In a few lines: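 Human preadipocytes expanded, then differentiated 6 days (insulin, dexamethasone, PPARγ agonist, 200 μM IBMX, L-thyroxine) before plating at 5000 cells/well. Test compound applied 30 min at room temperature; cAMP measured by HTRF after 1 h with lysis-buffer reagents, read as 665/620 nm fluorescence ratio.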
In general terms: Cyclic AMP is a second messenger, typically raised through Gs and lowered through Gi signalling.

In the case of `CC[C@H](C)[C@H](NC(=O)[C@H](Cc1ccccc1)NC(=O)[C@H](CCC(=O)O)NC(=O)C(C)(C)NC(=O)[C@H](CCC(N)=O)NC(=O)[C@H](Cc1c[nH]cn1)NC(=O)C(C)(C)NC(=O)[C@H](CCCNC(=N)N)NC(=O)[C@H](CC(=O)O)NC(=O)[C@H](CCCCNC(=O)COCCOCCNC(=O)COCCOCCNC(=O)CC[C@H](NC(=O)CCCCCCCCCCCCCCCCC(=O)O)C(=O)O)NC(=O)C(C)(C)NC(=O)[C@@H](NC(=O)[C@H](CO)NC(=O)[C@H](CC(C)C)NC(=O)[C@H](CC(=O)O)NC(=O)[C@H](CO)NC(=O)[C@@H](NC(=O)[C@H](Cc1ccccc1)NC(=O)[C@@H](NC(=O)CNC(=O)[C@H](CCC(=O)O)NC(=O)C(C)(C)NC(=O)[C@@H](N)Cc1ccc(O)cc1)[C@@H](C)O)[C@@H](C)CC)[C@@H](C)CC)C(=O)N[C@@H](CCC(=O)O)C(=O)N[C@@H](Cc1c[nH]c2ccccc12)C(=O)N[C@@H](CC(C)C)C(=O)N[C@@H](CC(C)C)C(=O)N[C@@H](C)C(=O)N[C@@H](CCC(N)=O)C(=O)N[C@@H](CCCNC(=N)N)C(=O)N1CCC[C@H]1C(=O)N[C@@H](CO)C(=O)N[C@@H](CO)C(=O)NCC(=O)N[C@@H](C)C(=O)N1CCC[C@H]1C(=O)N1CCC[C@H]1C(=O)N1CCC[C@H]1C(=O)N[C@@H](CO)C(N)=O` [SEQ ID NO: 22, H2N-Y-Aib-E-G-T-F-I-S-D-L-S-I-Aib-K[{AEEA}2-gGlu-C18OH]-D-R-Aib-H-Q-Aib-E-F-I-E-W-L-L-A-Q-R-P-S-S-G-A-P-P-P-S-NH2] (H-Y[Aib]EGTFISDLSI[Aib]K([AEEA-AEEA-γGlu-C18 diacid])DR[Aib]HQ[Aib]EFIEWLLAQRPSSGAPPPS-NH2), in data set [1], the pIC50 – broadly, the IC50 on a negative log10 scale, so that one unit is a factor of ten – is 9.00. In addition, in data set [2], the “Increase in FI” value was “no” and the “Lag time before increase” value is on record as over 45 h. For the same molecule, the pEC50 (commonly the EC50 on a negative log10 scale, so that one unit is a factor of ten) on human GIP receptor (read-out: hGIPR EC50) is 9.22. Besides, at human GIP receptor, the Emax (commonly the maximal effect, on the per cent scale that the assay sets) was 98%.

`CC[C@H](C)[C@H](NC(=O)[C@H](CCCNC(=N)N)NC(=O)[C@H](CCC(=O)O)NC(=O)[C@H](CCCCNC(=O)COCCOCCNC(=O)COCCOCCNC(=O)CC[C@H](NC(=O)CCCCCCCCCCCCCCCCC(=O)O)C(=O)O)NC(=O)C(C)(C)NC(=O)[C@@H](NC(=O)[C@H](CO)NC(=O)[C@H](CC(C)C)NC(=O)[C@H](CC(=O)O)NC(=O)[C@H](CO)NC(=O)[C@@H](NC(=O)[C@H](Cc1ccccc1)NC(=O)[C@@H](NC(=O)CNC(=O)[C@H](CCC(=O)O)NC(=O)C(C)(C)NC(=O)[C@@H](N)Cc1ccc(O)cc1)[C@@H](C)O)[C@@H](C)CC)[C@@H](C)CC)C(=O)N[C@@H](Cc1c[nH]cn1)C(=O)N[C@@H](CCC(N)=O)C(=O)NC(C)(C)C(=O)N[C@@H](CCC(=O)O)C(=O)N[C@@H](Cc1ccccc1)C(=O)N[C@H](C(=O)N[C@@H](CCC(=O)O)C(=O)N[C@@H](Cc1c[nH]c2ccccc12)C(=O)N[C@@H](CC(C)C)C(=O)N[C@@H](CC(C)C)C(=O)N[C@@H](C)C(=O)N[C@@H](CCC(N)=O)C(=O)NCC(=O)N1CCC[C@H]1C(=O)N[C@@H](CO)C(=O)N[C@@H](CO)C(=O)NCC(=O)N[C@@H](C)C(=O)N1CCC[C@H]1C(=O)N1CCC[C@H]1C(=O)N1CCC[C@H]1C(=O)N[C@@H](CO)C(N)=O)[C@@H](C)CC` [SEQ ID NO: 21, H2N-Y-Aib-E-G-T-F-I-S-D-L-S-I-Aib-K[{AEEA}2-gGlu-C18OH]-E-R-I-H-Q-Aib-E-F-I-E-W-L-L-A-Q-G-P-S-S-G-A-P-P-P-S-NH2] (H-Y[Aib]EGTFISDLSI[Aib]K([AEEA-AEEA-γGlu-C18 diacid])ERIHQ[Aib]EFIEWLLAQGPSSGAPPPS-NH2) had a pIC50 in data set [1] of 9.10. In data set [2], the “Increase in FI” value is “no” and the “Lag time before increase” value is on record as over 45 h. On human GIP receptor, the Emax was determined as 120%.
